PubChem BioAssay AID330 (DTP/NCI, 2004)
“And” between values parts separate entries of the source, which are not always exact repeats. Equal entries are not always repeated. Toxic doses and inconclusive results are not listed.

Tested on: P388 leukemia ip, CD2F1 mice, survival T/C
Experiment: NCI In Vivo Anticancer Drug Screen. Data for tumor model P388 Leukemia (intraperitoneal) in CD2F1 (CDF1) mice
Settings: endpoint: median survival time, higher = longer survival
How it was run: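 Mice carrying the transplanted tumor received test compound or vehicle. Survival was recorded in each group, and the value is the treated-group measurement divided by that of the vehicle-treated control group.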

[1] = dose: 6.25 mg/kg/injection, schedule: Q01DX005 (ip), vehicle: saline with Tween-80
[2] = dose: 12.5 mg/kg/injection, schedule: Q01DX005 (ip), vehicle: saline with Tween-80
[3] = dose: 50.0 mg/kg/injection, schedule: Q01DX009 (ip), vehicle: saline with Tween-80
[4] = dose: 100.0 mg/kg/injection, schedule: Q01DX009 (ip), vehicle: saline with Tween-80
[5] = dose: 200.0 mg/kg/injection, schedule: Q01DX009 (ip), vehicle: saline with Tween-80
[6] = dose: 50.0 mg/kg/injection, schedule: Q01DX005 (ip), vehicle: saline
[7] = dose: 100.0 mg/kg/injection, schedule: Q01DX005 (ip), vehicle: saline
[8] = dose: 100.0 mg/kg/injection, schedule: Q04DX002 (ip), vehicle: Klucel (hydroxypropylcellulose) (HPC)
[9] = dose: 200.0 mg/kg/injection, schedule: Q04DX002 (ip), vehicle: Klucel (hydroxypropylcellulose) (HPC)
[10] = dose: 400.0 mg/kg/injection, schedule: Q04DX002 (ip), vehicle: Klucel (hydroxypropylcellulose) (HPC)

In the case of `C=CCCCCCCCCCC(CCCCCC)C(=O)O` (configuration not stated), the T/C (dose: 50.0 mg/kg/injection, schedule: Q01DX001 (ip), vehicle: saline with Tween-80) is reported as 91 % of control, the T/C (dose: 100.0 mg/kg/injection, schedule: Q01DX001 (ip), vehicle: saline with Tween-80) is reported as 100 % of control and the T/C (dose: 200.0 mg/kg/injection, schedule: Q01DX001 (ip), vehicle: saline with Tween-80) is reported as 95 % of control.

With `O=C(OCCCCBr)c1ccccc1` the T/C (dose: 50.0 mg/kg/injection, schedule: Q01DX009 (ip), vehicle: saline + Tween-80 + alcohol) was 102 % of control, the T/C (dose: 100.0 mg/kg/injection, schedule: Q01DX009 (ip), vehicle: saline + Tween-80 + alcohol) was 97 % of control and the T/C (dose: 200.0 mg/kg/injection, schedule: Q01DX009 (ip), vehicle: saline + Tween-80 + alcohol) was 96 % of control. For the same compound, the T/C (dose: 400.0 mg/kg/injection, schedule: Q01DX009 (ip), vehicle: saline + Tween-80 + alcohol) was 111 % of control.

For `CS(=O)(=O)CC(=N\N)/C(CS(C)(=O)=O)=N/N`, the T/C (dose: 60.0 mg/kg/injection, schedule: Q01DX005 (ip), vehicle: saline) was 100 % of control, the T/C (dose: 120.0 mg/kg/injection, schedule: Q01DX005 (ip), vehicle: saline) was 100 % of control and the T/C (dose: 240.0 mg/kg/injection, schedule: Q01DX005 (ip), vehicle: saline) was 108 % of control.

For `CNC(=O)OCc1ccc(NCCN(C)C)c2c(=O)c3cc(O)ccc3oc12`, the T/C (dose: 0.38 mg/kg/injection, schedule: Q01DX005 (ip), vehicle: Klucel (hydroxypropylcellulose) (HPC)) was 97 % of control, the T/C (dose: 0.75 mg/kg/injection, schedule: Q01DX005 (ip), vehicle: Klucel (hydroxypropylcellulose) (HPC)) was 106 % of control and the T/C (dose: 1.5 mg/kg/injection, schedule: Q01DX005 (ip), vehicle: Klucel (hydroxypropylcellulose) (HPC)) was 113 % of control. The T/C (dose: 3.0 mg/kg/injection, schedule: Q01DX005 (ip), vehicle: Klucel (hydroxypropylcellulose) (HPC)) was 124 % of control and the T/C (dose: 6.0 mg/kg/injection, schedule: Q01DX005 (ip), vehicle: Klucel (hydroxypropylcellulose) (HPC)) was 120 % of control.

In the case of `COc1ccc(N2C(=O)c3ccc4c5ccc6c7c(ccc(c8ccc(c3c48)C2=O)c75)C(=O)N(C)C6=O)cc1`, the T/C (dose: 50.0 mg/kg/injection, schedule: Q01DX005 (ip), vehicle: Klucel (hydroxypropylcellulose) (HPC)) is reported as 97 % of control, the T/C (dose: 100.0 mg/kg/injection, schedule: Q01DX005 (ip), vehicle: Klucel (hydroxypropylcellulose) (HPC)) is reported as 98 % of control and the T/C (dose: 200.0 mg/kg/injection, schedule: Q01DX005 (ip), vehicle: Klucel (hydroxypropylcellulose) (HPC)) is reported as 105 % of control.

In the case of `CCSC(=S)S(=O)(=O)c1ccc(C)cc1`, the T/C (dose: 12.5 mg/kg/injection, schedule: Q01DX009 (ip), vehicle: Klucel (hydroxypropylcellulose) (HPC)) is reported as 120 % of control, the T/C (dose: 25.0 mg/kg/injection, schedule: Q01DX009 (ip), vehicle: Klucel (hydroxypropylcellulose) (HPC)) is reported as 105 % of control and the T/C (dose: 50.0 mg/kg/injection, schedule: Q01DX009 (ip), vehicle: Klucel (hydroxypropylcellulose) (HPC)) is reported as 115 % of control and 123 % of control.

With `C[n+]1c(-c2cccc(OCCCCCCCCOc3cccc(-c4c5cc(N)ccc5c5ccc(N)cc5[n+]4C)c3)c2)c2cc(N)ccc2c2ccc(N)cc21` the T/C (dose: 0.09 mg/kg/injection, schedule: Q01DX009 (ip), vehicle: water) was 163 % of control, the T/C (dose: 0.19 mg/kg/injection, schedule: Q01DX009 (ip), vehicle: water) was 154 % of control and the T/C (dose: 0.38 mg/kg/injection, schedule: Q01DX009 (ip), vehicle: water) was 151 % of control. The T/C (dose: 0.39 mg/kg/injection, schedule: Q01DX009 (ip), vehicle: water) was 170 % of control, the T/C (dose: 0.75 mg/kg/injection, schedule: Q01DX009 (ip), vehicle: water) was 150 % of control and the T/C (dose: 0.78 mg/kg/injection, schedule: Q01DX009 (ip), vehicle: water) was 179 % of control. The T/C (dose: 1.5 mg/kg/injection, schedule: Q01DX009 (ip), vehicle: water) was 91 % of control and the T/C (dose: 1.56 mg/kg/injection, schedule: Q01DX009 (ip), vehicle: water) was 213 % of control.

With `Cc1ccc(N2CC(=O)N3CCCN3C(=O)C2)cc1` the T/C [1] was 98 % of control, the T/C [2] was 100 % of control and the T/C (dose: 25.0 mg/kg/injection, schedule: Q01DX005 (ip), vehicle: saline with Tween-80) was 102 % of control.

With `CC(=O)NCCc1nc(-c2nc(C(=O)NCCCCN)cs2)cs1` the T/C (dose: 12.5 mg/kg/injection, schedule: Q01DX009 (ip), vehicle: water) was 100 % of control, the T/C (dose: 25.0 mg/kg/injection, schedule: Q01DX009 (ip), vehicle: water) was 98 % of control and 109 % of control and the T/C (dose: 50.0 mg/kg/injection, schedule: Q01DX009 (ip), vehicle: water) was 100 % of control and 113 % of control. The T/C (dose: 100.0 mg/kg/injection, schedule: Q01DX009 (ip), vehicle: water) was 103 % of control and 119 % of control, the T/C (dose: 200.0 mg/kg/injection, schedule: Q01DX009 (ip), vehicle: water) was 107 % of control and the T/C (dose: 400.0 mg/kg/injection, schedule: Q01DX009 (ip), vehicle: water) was 104 % of control.

`CC(=O)Nc1ccc(-c2cn3ccccc3n2)cc1` was tested, and the T/C [3] was 100 % of control, the T/C [4] was 92 % of control and the T/C [5] was 106 % of control.

For `O=C1c2sccc2C2NC12` (configuration not stated), the T/C [6] was 91 % of control and the T/C [7] was 100 % of control.

`C/C(=N\NC(=S)N1CC2CCC(CC2)C1)c1cccc(C)n1` was tested, and the T/C [1] was 102 % of control and 114 % of control and the T/C [2] was 112 % of control.

In the case of `CCOC(=O)/C(Cl)=C1\SN(C(=O)OCC)N=C1C`, the T/C (dose: 50.0 mg/kg/injection, schedule: Q01DX005 (ip), vehicle: saline with Tween-80) is reported as 99 % of control, the T/C (dose: 100.0 mg/kg/injection, schedule: Q01DX005 (ip), vehicle: saline with Tween-80) is reported as 95 % of control and the T/C (dose: 200.0 mg/kg/injection, schedule: Q01DX005 (ip), vehicle: saline with Tween-80) is reported as 96 % of control.

For `Cc1cnn(-c2ccccc2)[n+]1[O-]`, the T/C [6] was 99 % of control, the T/C [7] was 96 % of control and the T/C (dose: 200.0 mg/kg/injection, schedule: Q01DX005 (ip), vehicle: saline) was 102 % of control.

`CCOc1ccc(-c2nc(Cl)nc(Cl)n2)c2ccccc12` was tested, and the T/C (dose: 60.0 mg/kg/injection, schedule: Q01DX005 (ip), vehicle: Klucel (hydroxypropylcellulose) (HPC)) was 104 % of control and the T/C (dose: 120.0 mg/kg/injection, schedule: Q01DX005 (ip), vehicle: Klucel (hydroxypropylcellulose) (HPC)) was 111 % of control.

In the case of `CC(C(=O)O)c1ccc(C(=O)c2cccs2)cc1` (configuration not stated), the T/C [3] is reported as 97 % of control, the T/C [4] is reported as 97 % of control and the T/C [5] is reported as 97 % of control.

`CCCCOC(=O)C(C)OC(=O)Nc1cccc(C)c1` (configuration not stated) was tested, and the T/C [8] was 105 % of control, the T/C [9] was 103 % of control and the T/C [10] was 100 % of control.

In the case of `O=C(CCN1CC1)Nc1cccc(NC(=O)CCN2CC2)c1`, the T/C (dose: 1.8 mg/kg/injection, schedule: Q01DX009 (ip), vehicle: Klucel (hydroxypropylcellulose) (HPC)) is reported as 176 % of control, the T/C (dose: 2.5 mg/kg/injection, schedule: Q01DX009 (ip), vehicle: Klucel (hydroxypropylcellulose) (HPC)) is reported as 158 % of control and 169 % of control and 185 % of control and the T/C (dose: 3.0 mg/kg/injection, schedule: Q01DX009 (ip), vehicle: Klucel (hydroxypropylcellulose) (HPC)) is reported as 174 % of control. For the same compound, the T/C (dose: 5.0 mg/kg/injection, schedule: Q01DX009 (ip), vehicle: Klucel (hydroxypropylcellulose) (HPC)) was 167 % of control and 191 % of control and 209 % of control, the T/C (dose: 6.0 mg/kg/injection, schedule: Q01DX009 (ip), vehicle: Klucel (hydroxypropylcellulose) (HPC)) was 186 % of control and the T/C (dose: 15.0 mg/kg/injection, schedule: Q01DX009 (ip), vehicle: Klucel (hydroxypropylcellulose) (HPC)) was 88 % of control. For the same compound, the T/C (dose: 20.0 mg/kg/injection, schedule: Q01DX009 (ip), vehicle: Klucel (hydroxypropylcellulose) (HPC)) was 116 % of control.

`CN1C(=O)N(c2cc(Cl)cc(Cl)c2)C(=N)C1=S` was tested, and the T/C (dose: 60.0 mg/kg/injection, schedule: Q01DX005 (ip), vehicle: Klucel + Tween-80) was 98 % of control and the T/C (dose: 120.0 mg/kg/injection, schedule: Q01DX005 (ip), vehicle: Klucel + Tween-80) was 94 % of control.

In the case of `Cc1cc(N)nc(=O)n1COCCOCc1ccccc1`, the T/C [8] is reported as 103 % of control, the T/C [9] is reported as 106 % of control and the T/C [10] is reported as 98 % of control.

With `O=C(OC(CCc1ccccc1)C(=O)O)c1ccc([N+](=O)[O-])cc1` (configuration not stated) the T/C (dose: 75.0 mg/kg/injection, schedule: Q01DX001 (ip), vehicle: Klucel (hydroxypropylcellulose) (HPC)) was 111 % of control, the T/C (dose: 150.0 mg/kg/injection, schedule: Q01DX001 (ip), vehicle: Klucel (hydroxypropylcellulose) (HPC)) was 112 % of control and the T/C (dose: 300.0 mg/kg/injection, schedule: Q01DX001 (ip), vehicle: Klucel (hydroxypropylcellulose) (HPC)) was 97 % of control.

`COc1cc(/C=C/C=C/c2ccccc2)oc(=O)c1` was tested, and the T/C (dose: 100.0 mg/kg/injection, schedule: Q04DX003 (ip), vehicle: Klucel (hydroxypropylcellulose) (HPC)) was 91 % of control, the T/C (dose: 200.0 mg/kg/injection, schedule: Q04DX003 (ip), vehicle: Klucel (hydroxypropylcellulose) (HPC)) was 90 % of control and the T/C (dose: 400.0 mg/kg/injection, schedule: Q04DX003 (ip), vehicle: Klucel (hydroxypropylcellulose) (HPC)) was 92 % of control.
